{
  "source": "paper PMC11697409",
  "about": "“Design of Natterins-based peptides improves antimicrobial and antiviral activities” (Biotechnology Reports, 2024)",
  "key": {"trypsin [1]": {"test_system": "trypsin", "assay": "Peptide stability to trypsin, HPLC-MS", "format": "in vitro ADME", "conditions": "trypsin 20 μg/mL, peptide 100 μg/mL, incubation time not given; for Change after trypsin treatment, mass spectra: ESI-MS; for Change after trypsin treatment, HPLC chromatogram: HPLC C-18, UV 220 nm", "procedure": "Peptide stability was evaluated under various conditions. To investigate the impact of temperature on peptide structure, samples were incubated at 37 °C and 60 °C for 24 h. A control sample was kept at -4 °C. To evaluate the distribution under acidic conditions, the peptides were dissolved in a 0.074 M HCl solution, resulting in a pH of 3. For evaluation under basic conditions, the peptides were dissolved in a 0.18 M NaOH solution, resulting in a pH of 11. A control sample was maintained at pH 7. Additionally, samples were exposed to trypsin solutions at a concentration of 20 µg/mL. All samples underwent analysis using High-Performance Liquid Chromatography (HPLC) coupled with Mass Spectrometry (LC/MS-2020 EV - Prominence; Shimadzu Corporation, Tokyo, Japan). The HPLC system comprised LC-10AD mobile phase pumps, an Ultrasphere C-18 column (5 µm; 4.6 × 250 mm), a UV-vis SPD-10AV detector set at a wavelength of 220 nm, and a mass spectrometer operating in electrospray ionization (ESI) mode with a quadrupole separator.\nIn mass spectrometry assays, an alkaline pH can lead to diverse outcomes. Specifically, in the analysis of proteins and peptides, an alkaline environment may induce unintended chemical modifications in certain samples, impacting ionization, fragmentation, and the detection of reference molecules. Additionally, the peptides underwent treatment with a trypsin solution at a concentration of 20 μg/mL."}, "human RBC": {"test_system": "human RBC", "assay": "Hemolytic test", "format": "cell-based", "conditions": "50 μM, 1 h at 37 °C, A570, 1 % TritonX-100 as positive control; highest percentage observed", "procedure": "To perform the hemolytic test, human RBC was obtained from a volunteer donor. After centrifugation at 1000 xg for 5 min, the RBC pellets were resuspended in 5 % (vol/vol) sterile saline at different concentrations of peptides NATT2_06 and NATT4_01, and subsequently incubated at 37 °C for 1 hour. The supernatants were transferred to a 96-well plate, and the absorbance at 570 nm (A570) was measured. 0.12 % DMSO and 1 % TritonX-100 were used as negative and positive control, respectively. The hemolysis rate was calculated as Eq 1: Hemolysis%=A(sample)−A(DMSO)/A(Triton)−A(DMSO)x100"}, "G. mellonella larvae": {"test_system": "G. mellonella larvae", "assay": "Toxicity in Galleria mellonella", "format": "in vivo", "conditions": "10 µL of 50 µM injected into the last left proleg, ten larvae per group, 7 days, three independent experiments", "procedure": "For this study, the methodologies described by Mylonakis et al. and Jorjão et al., with some modifications were employed. G. mellonella larvae in their final larval stage were used for the experiment. Ten randomly selected G. mellonella larvae of similar weight and size (250 to 350 mg) were used per group in all assays. Syringes (Hamilton Inc., USA) used for injections were sterilized with peracetic acid (Henkel - Ecolab GmbH, Düsseldorf, Germany) according to the manufacturer's instructions prior to inoculation. Each larva was injected with 10 µL of each peptide (NATT2_06 and NATT4_01) at a concentration of 50 µM into the last left proleg. A control group was injected with PBS to assess overall viability. The number of deceased G. mellonella was recorded every 24 h after peptide injection, with monitoring continuing for 7 days across three independent experiments. […] The experiment concluded either when all larvae in the experimental group had died or transitioned into the pupal form."}, "[2]": {"test_system": "Chikungunya virus (CHIKV, ECSA genotype) in Huh-7 cells", "format": "cell-based", "conditions": "vs untreated CHIKV control", "procedure": ". First, the viral propagation and titration were performed in the adherent African green monkey kidney epithelial (Vero) cells (ATCC CRL-1586). The virus was grown in Vero cultured in MEM medium (Gibco, Waltham, MA, USA) supplemented with 10 % fetal bovine serum (FBS, Gibco), 100 U/mL penicillin, and 100 μg/mL streptomycin (Gibco, Waltham, MA, USA)-M10) for 48 h Then, the supernatant was collected, harvested, and titrated as previously described. The titer obtained for CHIKV was 9.3 × 10^6 PFU/ml.\nThe immortalized human hepatocytes derived from the hepatocarcinoma of an individual (Huh-7 lineage, CLS 300156) were cultured. The Huh-7 were grown in Minimum Essential Medium (Advanced MEM, Gibco®, USA), supplemented with 10 % (v/v) heat-inactivated fetal bovine serum (FBS) (Gibco®, USA), 100 U/mL penicillin, and 100 μg/mL streptomycin (PenStrep – Gibco®, USA), along with 2 mM L-glutamine (Gibco®, USA), and maintained in a humidified atmosphere with 5 % CO2 at 37 °C. […]\nThe second assay, named \"co-treatment\" (Figure S1b), involved removing the culture medium from the wells, washing with PBS, followed by simultaneous inoculation of CHIKV and peptides, diluted in the same manner in culture medium with the same supplementation, in triplicate. […] Cells were also monitored for 12 h. […]\nAfter conducting the assays, each viral RNA in the samples' supernatant was extracted using the QIAamp® Viral RNA Mini Kit (QIAGEN®, Germany). […] For the molecular characterization of NATT peptide treatment, RNA samples extracted from the plaque challenge assays' supernatants and viral stock dilutions underwent quantitative reverse transcription PCR (RT-qPCR) assays. […]\nFor the RT-qPCR reaction, the AgPath-ID® One Step RT-qPCR kit (Applied Biosystems®, USA) was used for each extracted RNA in duplicate. […] All detection and quantification of viral RNA was done by real-time PCR of each sample (Table S1 and Figure S14). […]"}, "trypsin [3]": {"test_system": "trypsin", "conditions": "cited from earlier work", "procedure": "In the case of the peptide Cap11, this loss of activity occurs after 15 min of incubation. Conversely, a brief exposure of up to 5 min to trypsin enhances the antimicrobial activity of peptides such as Cap11–1-18m² by a factor of 2 [76]. […] The sp ..."}, "[4]": {"conditions": "various assays; cited from earlier work", "description": "Similarly, peptides including HKPLP, Cap18, Cap11, Cap11–1-18m², Cecropin B, Cecropin P1, Melittin, Indolic ..."}},
  "note": "Where two headings read alike, the source gives them in different places. Residues, ends and D or L forms follow the SMILES beside them. No end group written: not given here.",
  "data": [
    {"compound": "CC(C)C[C@H](NC(=O)[C@H](CCCCN)NC(=O)[C@@H]1CCCN1C(=O)[C@H](CCCNC(=N)N)NC(=O)[C@H](CC(C)C)NC(=O)[C@@H](NC(=O)[C@@H](N)[C@@H](C)O)[C@@H](C)O)C(=O)N[C@@H](CCCCN)C(=O)N[C@@H](CO)C(=O)N[C@@H](CCCCN)C(N)=O", "note": "[NATT2_06] (H-TTLRPKLKSK-NH2)", "values": [
      {"measurement": "Change after trypsin treatment, mass spectra", "setting": "trypsin [1]", "result": "displayed notable changes in mass"},
      {"measurement": "Change after trypsin treatment, HPLC chromatogram", "setting": "trypsin [1]", "result": "displayed notable changes in mass"},
      {"measurement": "hemolysis", "setting": "human RBC", "result": 2, "unit": "%"},
      {"measurement": "Deaths of G. mellonella larvae", "setting": "G. mellonella larvae", "result": "only three deaths occurred"}
    ]},
    {"compound": "CC(C)C[C@H](NC(=O)[C@H](CCCCN)NC(=O)CNC(=O)[C@H](CC(C)C)NC(=O)CNC(=O)[C@H](Cc1ccc(O)cc1)NC(=O)[C@H](CCCCN)NC(=O)[C@H](CC(N)=O)NC(=O)[C@H](CCCCN)NC(=O)[C@H](C)NC(=O)[C@@H](NC(=O)[C@H](Cc1ccc(O)cc1)NC(=O)[C@@H](N)CC(C)C)C(C)C)C(N)=O", "note": "[NATT4_01] (H-LYVAKNKYGLGKL-NH2)", "values": [
      {"measurement": "Change after trypsin treatment, mass spectra", "setting": "trypsin [1]", "result": "fragments of the peptide were discernible"},
      {"measurement": "Change after trypsin treatment, HPLC chromatogram", "setting": "trypsin [1]", "result": "no notable shifts observed in the chromatograms"},
      {"measurement": "Percentage of viral inhibition, co-treatment", "setting": "[2]; 25 μM", "result": "25,31%"},
      {"measurement": "Percentage of viral inhibition, co-treatment", "setting": "[2]; 50 μM", "result": "22,62%"},
      {"measurement": "Percentage of viral inhibition, co-treatment", "setting": "[2]; 3125 μM (so in the source)", "result": "22,44%"},
      {"measurement": "Deaths of G. mellonella larvae", "setting": "G. mellonella larvae", "result": "no deaths were observed"}
    ]},
    {"compound": "Cap18", "values": [
      {"measurement": "time of incubation with trypsin until antimicrobial activity is entirely lost", "setting": "trypsin [3]", "result": "≤ 30", "unit": "s"},
      {"measurement": "temperature withstood", "setting": "[4]", "result": "up to 100 °C"}
    ]},
    {"compound": "Cecropin P1 (SWLSKTAKKLENSAKKRISEGIAIAIQGGPR; Cecropin-P1; UniProt P14661 14-44, looked up)", "values": [
      {"measurement": "time of incubation with trypsin until antimicrobial activity is entirely lost", "setting": "trypsin [3]", "result": "≤ 30", "unit": "s"},
      {"measurement": "temperature withstood", "setting": "[4]", "result": "up to 100 °C"}
    ]},
    {"compound": "Cecropin B", "values": [
      {"measurement": "time of incubation with trypsin until antimicrobial activity is entirely lost", "setting": "trypsin [3]", "result": "≤ 30", "unit": "s"},
      {"measurement": "temperature withstood", "setting": "[4]", "result": "up to 100 °C"}
    ]},
    {"compound": "Melittin", "values": [
      {"measurement": "time of incubation with trypsin until antimicrobial activity is entirely lost", "setting": "trypsin [3]", "result": "≤ 30", "unit": "s"},
      {"measurement": "temperature withstood", "setting": "[4]", "result": "up to 100 °C"}
    ]},
    {"compound": "Indolicidin (ILPWKWPWWPWRR; ends and bridges not checked; UniProt P33046 131-143, looked up)", "values": [
      {"measurement": "time of incubation with trypsin until antimicrobial activity is entirely lost", "setting": "trypsin [3]", "result": "≤ 30", "unit": "s"},
      {"measurement": "temperature withstood", "setting": "[4]", "result": "up to 100 °C"}
    ]}
  ]
}
